The data set can be described thus: Human HepG2 cell viability assay in 384 well format. The data set is classed as toxicity, cell-based. Set-up: dose 125 nL, time 70.5 hour; cytotoxicity at 70.5 h: concentration not given beside the values. The conditions noted are these: HepG2 cells, read-out: Inhibition.
Turning to `Cc1cc(C)n(-c2ccccc2NC(=O)NCCCN(C)S(C)(=O)=O)n1`, the cytotoxicity at 70.5 h worked out at 5.58%.
The result for `CN(Cc1ccsc1)C(=O)Nc1ccc(S(=O)(=O)N(C)C)cc1` reads 3.55%; that for `O=C(O)CN1CCCC2(CCN2Cc2cccc(F)c2)C1` (centres undefined), -1.42%; that for `CC(=O)NCC1CCN(C(=O)NCCc2ccc3c(c2)OCO3)CC1`, -17.3%.
Regarding `Cc1ccc(OCC2CCCN(Cc3ccc(CO)o3)C2)cc1` (centres undefined), the cytotoxicity at 70.5 h is -3.39%.
With `CC(C)(C)c1ncc(C(=O)NCCn2ccnc2)s1`, the cytotoxicity at 70.5 h is 24.5%.
The result for `CCCSCC(=O)N1CCN(c2ccc(OC)cc2)CC1C` (centres undefined) reads -2.57%; that for `Cc1cc(NC(=O)c2ccc(F)cc2F)n(C)n1`, -10.6%; that for `COc1ccccc1OC1CCN(Cc2ccc(N(C)C)nc2)CC1`, -6.85%.
Then `CCc1ccc(CN(Cc2ccccc2)CC(C)CO)nc1` (centres undefined), with -6.55%.
The result for `CCc1nsc(N2CCCN(C(=O)c3ccc(OC)cc3)CC2)n1` reads -10.9%.
For the molecule `CCc1cccc(NC(=O)CCC(=O)N(C)Cc2nc(C)c[nH]2)c1`, the cytotoxicity at 70.5 h was determined as 2.2%.
For the molecule `N#Cc1ccc(CN2CCN(C(=O)CCn3cncn3)CC2)cc1`, the cytotoxicity at 70.5 h turned out to be 6.05%.
Then `Cc1nc(Nc2ncccn2)cc(C2CCCN2C(C)C)n1` (centres undefined), with -14%.
Then `CCc1nc(C)c(CN2CCOC(CCCC(C)C)C2)[nH]1` (centres undefined), with 27.1%; and `CC(C)n1cnnc1C1CCCN(S(=O)(=O)CCCF)C1` (centres undefined), with -93.6%; and `COCCO[C@@H]1CCN(Cc2csc(C)n2)[C@H]1Cc1ccccc1`, with -8.53%.
The result for `CCc1nnc(CN2CCOC(Cn3cc(C)cn3)C2)o1` (centres undefined) reads -6.6%; that for `Cc1c(C(=O)N2CCC(O)(CN(C)C)C2)c2ccccc2n1C` (centres undefined), 11%; that for `CS(=O)(=O)NCCCNCc1cc(F)ccc1Br`, -2.01%.
Take `CCc1ccc(-n2nnc(C(=O)O)c2-c2ccccn2)cc1`: the cytotoxicity at 70.5 h was -26.2%.
Then `CSCCCN1CCn2nc(CNC(C)=O)cc2C1`, with 14.2%.
The result for `O=C(CO)N1CCCn2nnc(Cn3cccn3)c2C1` reads 11.5%; that for `Cc1nn(C)c2ncc(S(=O)(=O)N3CCCC(C(N)=O)C3)cc12` (centres undefined), -6.46%.
On to `Cn1ccnc1CN(Cc1cccnc1)CC1CCCO1` (centres undefined), for which the cytotoxicity at 70.5 h is -8.2%.
With `CCC(C(=O)NCCc1ccn(-c2ccccc2)n1)N1CCCC1=O` (centres undefined), the cytotoxicity at 70.5 h was -5.95%.
The result for `Cc1ccc(-c2cc(CS(=O)(=O)NC3CCCNC3=O)on2)cc1` (centres undefined) reads 0.495%; that for `CNC(=O)CN1CCO[C@H]2CN(CC3CCOC3)C[C@H]21` (some centres undefined), -1.2%; that for `c1cnnc(N2CCCC(NCc3cccc4c3OCCO4)C2)c1` (centres undefined), 6.38%.
The result for `Cc1cc(C(=O)NCc2ccc(N3CCN(C)CC3)nc2)c(C)s1` reads -12.2%; that for `O=C(c1cc(C2CC2)on1)N1C[C@H]2CC[C@](O)(c3ccc(F)cc3)[C@H]2C1`, -0.34%; that for `CNC(=O)NCC(CO)Cc1cccc(OC(F)(F)F)c1` (centres undefined), -8.42%.
For `CCCc1nnc(N2CC[C@](C)(O)[C@H](C)C2)s1`, the cytotoxicity at 70.5 h is 8.74%.
`COCCc1noc(CN2CCC3(CCCO3)CCC2=O)n1` (centres undefined): the cytotoxicity at 70.5 h worked out at 15.5%.
Then `CCOc1ccc(C(=O)N(CCOC)Cc2c(C)nn(CC)c2C)o1`, with -6.36%; and `CC(C)Cn1cncc1CNC(=O)c1cccc(CC2CCNCC2)c1`, with 8.07%; and `CC(C)CN1CCCn2nc(CNC(=O)c3cccnc3O)cc2C1`, with 14.1%.
For the molecule `CCc1nc(CN2CCN(C(=O)C3(C#N)CCCCC3)CC2)cs1`, the cytotoxicity at 70.5 h was -0.0355%.
Consider `O=C(Nc1cnccn1)[C@@H]1COC[C@H]2CN(C3CCC3)C[C@H]21`, for which the cytotoxicity at 70.5 h is -87.9%.
Take `c1cnc(N2CCCC3(CCN(CC4CCOC4)CC3)C2)nc1` (centres undefined): the cytotoxicity at 70.5 h came out at 19%.
The result for `Cn1c(NCC(O)c2ccc(Cl)cc2)c(C#N)c(=O)n(C)c1=O` (centres undefined) reads -4.06%; that for `Cc1cc(F)ccc1S(=O)(=O)NCc1[nH]ncc1Br`, -7.73%; that for `O=C(NCC(O)c1ccc(F)cc1F)c1cccnc1O` (centres undefined), -15.5%.
Take `CN(Cc1ccsc1)C(=O)CNC(=O)N1CCc2ccccc2C1`: the cytotoxicity at 70.5 h was -7.67%.
The result for `COCCCN(Cc1cnc(-c2ccccn2)nc1)C1CCN(C)CC1` reads -22.2%.
For the molecule `O=C(Cc1cccs1)NC1CCN(c2cccc(F)c2)CC1`, the cytotoxicity at 70.5 h amounted to 1.18%.
Take `CN(CC(=O)NC(N)=O)CC1(c2ccc(Br)cc2)CC1`: the cytotoxicity at 70.5 h is -1.35%.
The result for `CC(C)CCN1CCN(CC(=O)Nc2ccc3nsnc3c2)CC1` reads -11.4%; that for `CN(Cc1cn2c(n1)CN(Cc1ccc(F)cc1)CC2)Cc1ccco1`, -8.36%; that for `CCCN1CCc2[nH]cnc2C12CCN(C(=O)Cn1ccnc1C)CC2`, -6.5%.
Regarding `COc1ccc(NCc2c[nH]nc2-c2cccnc2)cc1`, the cytotoxicity at 70.5 h was found to be 8.67%.
The result for `CN(C)C(=O)CN1CCCC2(CCN(c3ccsc3)C2=O)C1` (centres undefined) reads 23.7%; that for `CN(C)c1ccc(CNC(=O)NCCc2cn3ccccc3n2)cn1`, -3.45%; that for `O=C(NCc1ccco1)[C@@]12CCO[C@@H]1CCN(Cc1nccs1)C2`, 1.38%.
As for `Cc1nn(C)c(C)c1CN(Cc1cccn1-c1ccccn1)C(C)C`, the cytotoxicity at 70.5 h is 9.47%.
Then `Cc1nc2ccc(C(=O)N3C[C@@H](O)[C@H](N4CCN(C)CC4)C3)cc2[nH]1`, with -4.75%; and `CSc1ccccc1C(C(=O)O)N1CCN(Cc2ccccn2)CC1` (centres undefined), with 17%.
Then `CC(C(=O)N1CCCCCC1)N1CCN(Cc2nccn2C)CC1` (centres undefined), with -4.84%; and `CC(C)c1nn(C)c(N(C)C)c1CNCc1ccnn1C`, with 18%.
Turning to `CSCc1noc(CN2CCC3(CC2)CC(=O)N(CC(C)C)C3)n1`, the cytotoxicity at 70.5 h was -2.72%.
Then `c1csc(CN2CCC3(CC2)CCN(CC2CC2)CC3)n1`, with 14.9%; and `Cc1cc(C)c(OCC(=O)NS(=O)(=O)c2c(C)noc2C)c(C)c1`, with 12.1%.
For `Cc1cc(NC2CCC(=O)N(C)C2)n2nccc2n1` (centres undefined), the cytotoxicity at 70.5 h is -9.21%.
As for `O=C(CC1CC1)N1CCn2cc(Cn3cncn3)nc2C1`, the cytotoxicity at 70.5 h is -18.5%.
In the case of `Cc1nn(CCCNC(=O)C2CCN(S(C)(=O)=O)CC2)c(Cl)c1Cl`, the cytotoxicity at 70.5 h was -7.28%.
Regarding `CCC[C@H]1CN(c2cncc(C(=O)N(C)C)n2)C[C@@H]1N(C)C`, the cytotoxicity at 70.5 h amounted to 19.4%.
Then `Cc1ncsc1CN1C[C@H](C(=O)NC2CCCC2)[C@@H]2CCO[C@@H]2C1`, with -1.79%; and `O=C(CCc1nnc(-c2ccsc2)o1)NCC1CCN(C2CC2)C1` (centres undefined), with -4.06%; and `CCCNc1nnc(S(=O)(=O)CCOCC)s1`, with -0.768%.
The result for `COC(=O)N1CCCCC1C(=O)N(C)Cc1cc(-c2cccnc2)no1` (centres undefined) reads -8.4%; that for `COCC(=O)N1CCCC(c2cc(C(F)F)n3ncnc3n2)C1` (centres undefined), -2.53%; that for `CNC(=O)C1Cn2ccnc2C2(CCN(C(=O)c3ccccn3)CC2)O1` (centres undefined), -2.1%.
The result for `COC(=O)c1ccc(Cl)c(NS(=O)(=O)c2cnn(C)c2)c1` reads 10.2%.
`CCC(Nc1cccc(Oc2ccc(C#N)cc2)c1)C(N)=O` (centres undefined): the cytotoxicity at 70.5 h is -4.69%.
The result for `O=C(CN1CCN(c2ccnc3c(F)ccc(F)c23)CC1)N1CCCC1` reads 8.2%; that for `CCc1nc2n(n1)CCCC2NC(=O)Nc1ccc(F)cc1C#N` (centres undefined), 1.79%; that for `O=C(NCCCO)c1nnsc1-c1ccc(Cl)cc1`, -13.1%.
In the case of `CN(C)c1ncc(I)c(C2CCCCN2S(C)(=O)=O)n1` (centres undefined), the cytotoxicity at 70.5 h is -3.68%.
For `CN1CCN(CC2CC2)C(=O)C12CCN(C(=O)c1ccnnc1)CC2`, the cytotoxicity at 70.5 h is -5.46%.
For `CC(C)c1nn(C)c(N(C)C)c1CNCc1ccc(N(C)C)nc1`, the cytotoxicity at 70.5 h turned out to be 3.68%.
Regarding `CC(NC(=O)NC1CCN(Cc2ccccn2)CC1)c1nncn1C` (centres undefined), the cytotoxicity at 70.5 h is -2%.
The result for `COCc1cn(C2CCN(CCC(C)c3ccccc3)CC2)nn1` (centres undefined) reads -12.1%; that for `Cc1cccc(OCCC(=O)N2CCCN(C(N)=O)CC2)c1C`, 15.3%.
The result for `CCc1nc2n(n1)CC(NCC1=Cc3ccc(OC)cc3OC1)CC2` (centres undefined) reads 2.24%.
The result for `O=C(COCCc1ccccc1)N1CCCC(n2cncn2)C1` (centres undefined) reads 1.67%; that for `Cc1cc(=O)[nH]c(-c2cccc(CN3CCCN4CCCC4C3)c2)n1` (centres undefined), -5.83%; that for `CCN(Cc1ccncc1)C1CCCN(Cc2ccc(F)cc2OC)C1` (centres undefined), -1.99%.
Turning to `Cc1ccnc(N2C[C@@H]3CC[C@H](C2)N(CC2CCC2)C3=O)n1`, the cytotoxicity at 70.5 h turned out to be 9.42%.
Turning to `COc1cccc(CN2CCCCCC2c2cccc(C)c2)c1O` (centres undefined), the cytotoxicity at 70.5 h worked out at 6.46%.
On to `CC(C)c1cc(C(=O)N(Cc2ccncc2)CC2CCCO2)no1` (centres undefined), for which the cytotoxicity at 70.5 h is -6.68%.
Regarding `OC(COc1ccccc1)CN1CCC(c2ccn[nH]2)CC1` (centres undefined), the cytotoxicity at 70.5 h was -13.1%.
In the case of `CSc1nc2ccsc2c(=O)n1CC(=O)N(C)c1ccccc1`, the cytotoxicity at 70.5 h was -4.9%.
Turning to `COCCc1noc(CN2CCN(CC(O)c3ccccc3)CC2)n1` (centres undefined), the cytotoxicity at 70.5 h is -6.23%.
The result for `N#Cc1cccc(OCCN2CCn3c(nnc3C3CC3)C2)c1` reads -11%.
The result for `Cn1cnc2c1CCN(CC(O)c1ccc3c(c1)OCCO3)C2` (centres undefined) reads 9.43%; that for `Cc1nn(C)c2c(N3CCN(C(=O)NC4CCCCC4)CC3)ncnc12`, 4.87%; that for `CCC(CN1CCCC1)n1cncc1-c1cnn(-c2ccccc2)c1` (centres undefined), -2.29%.
`COc1ccc2c(c1)CC(C1CCOCC1)N(C(=O)c1ccnn1C)C2` (centres undefined): the cytotoxicity at 70.5 h was -0.842%.
As to `CCN1C[C@@H]2[C@@H](OC)CCN(S(=O)(=O)c3ccccc3)[C@@H]2C1`, the cytotoxicity at 70.5 h is 3.99%.

The values above are taken from ChEMBL document CHEMBL3507680, “University of Dundee, Gates Library screen for HepG2 cell viability”.
